Measurements published in the SangsterLogP compilation.

Experiments:
[1] = method code SF-AS, from Cloux, J.; Crommen, J.; Delarge, J.; Pirard, M.; Thunus, L. (1988). Attempts at calculating hydrophobic constant of the sulfonylurea group. J Pharm Belg, 43(3)141-151.; conditions: for logD: pH 3.5

Q: For `CC(C)(C)NC(=O)NS(=O)(=O)c1ccccc1`, which logP [1] is on record?
A: Its logP is 1.95.

Q: Which logP does the source give for `CNC(=O)N(C)S(=O)(=O)c1cccnc1` here?
A: Its logP is 0.42.

Q: For `NC(=O)NS(=O)(=O)c1cccnc1`, which logD [1] is on record?
A: Its logD is -0.65.

Q: Which logP does the source give for `CNC(=O)N(C)S(=O)(=O)Cc1ccccc1` here?
A: The logP was 1.18.

Q: Which logP does the source give for `CNC(=O)NS(=O)(=O)Cc1ccccc1` here?
A: Its logP is 0.54.

Q: For `CCN(CC)C(=O)NS(=O)(=O)c1ccccc1`, which logP [1] is on record?
A: The logP was 0.99.

Q: With `CC(C)NC(=O)NS(=O)(=O)c1ccccc1` as the compound, how does the logP [1] read?
A: Its logP is 1.34.

Q: With `CNC(=O)NS(=O)(=O)c1cccnc1` as the compound, how does the logD [1] read?
A: Its logD is -0.45.

Q: With `CCNC(=O)NS(=O)(=O)c1ccccc1` as the compound, how does the logP [1] read?
A: Its logP is 0.9.

Q: With `CN(C)C(=O)NS(=O)(=O)Cc1ccccc1` as the compound, how does the logP read?
A: Its logP is 0.54.

Q: For `CCCNC(=O)NS(=O)(=O)c1ccccc1`, which logP [1] is on record?
A: Its logP is 1.44.

Q: With `CN(C)C(=O)NS(=O)(=O)c1ccccc1` as the compound, how does the logP [1] read?
A: Its logP is 0.28.

Q: With `NC(=O)NS(=O)(=O)c1ccccc1` as the compound, how does the logP [1] read?
A: Its logP is 0.28.

Q: Which logP does the source give for `NC(=O)NS(=O)(=O)Cc1ccccc1` here?
A: Its logP is 0.28.
